Reference: the supplement of paper PMC10307832

Columns and labels:
Experiment in all cases: relative viability (nuclei count vs DMSO), 5 days (fraction); higher = more cells survive
201T = tested on: 201T
Method in brief: (§1)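 Cells from lung cancer lines were seeded into 1536-well plates and, one day later, dosed by pin tool. Treatments were either a single drug or a fixed dose of an anchor drug with five library-drug doses (not always all listed) in √10 steps. After 5 days, nuclei were stained in a one-step fixation (final 0.05% Triton X-100, 1% formaldehyde, 1 ug/ml Hoechst) and counted on 4× images, and relative viability is the treated-to-vehicle nuclei ratio, as the median of duplicate plates.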

COR-L 105 = tested on: COR-L 105
Method in brief: as §1

ChaGo-K-1 = tested on: ChaGo-K-1
Method in brief: as §1

EPLC-272H = tested on: EPLC-272H
Method in brief: as §1

H3255 = tested on: H3255
Method in brief: as §1

HCC-78 = tested on: HCC-78
Method in brief: as §1

HCC-827 = tested on: HCC-827
Method in brief: as §1

LC-2-ad = tested on: LC-2-ad
Method in brief: as §1

LCLC-97TM1 = tested on: LCLC-97TM1
Method in brief: as §1

NCI-H1666 = tested on: NCI-H1666
Method in brief: as §1

NCI-H1915 = tested on: NCI-H1915
Method in brief: as §1

NCI-H2087 = tested on: NCI-H2087
Method in brief: as §1

NCI-H2126 = tested on: NCI-H2126
Method in brief: as §1

NCI-H2347 = tested on: NCI-H2347
Method in brief: as §1

NCI-H23 = tested on: NCI-H23
Method in brief: as §1

NCI-H2405 = tested on: NCI-H2405
Method in brief: as §1

NCI-H520 = tested on: NCI-H520
Method in brief: as §1

NCI-H647 = tested on: NCI-H647
Method in brief: as §1

NCI-H650 = tested on: NCI-H650
Method in brief: as §1

NCI-H661 = tested on: NCI-H661
Method in brief: as §1

PC-14 = tested on: PC-14
Method in brief: as §1

RERF-LC-KJ = tested on: RERF-LC-KJ
Method in brief: as §1

## O=c1cc(N2CCOCC2)oc2c(-c3cccc4c3sc3ccccc34)cccc12 + C[C@@H](Oc1cc(-c2cnn(C3CCNCC3)c2)cnc1N)c1c(Cl)ccc(F)c1Cl [Crizotinib] (partner 1 µM)
201T; first compound 0.01 µM
  relative viability: 1
201T; first compound 0.03162 µM
  relative viability: 1.01
201T; first compound 0.1 µM
  relative viability: 0.981
201T; first compound 0.3162 µM
  relative viability: 1.01
201T; first compound 1 µM
  relative viability: 1.03
COR-L 105; first compound 0.01 µM
  relative viability: 0.655
COR-L 105; first compound 0.03162 µM
  relative viability: 0.649
COR-L 105; first compound 0.1 µM
  relative viability: 0.856
COR-L 105; first compound 0.3162 µM
  relative viability: 0.724
COR-L 105; first compound 1 µM
  relative viability: 0.589
ChaGo-K-1; first compound 0.01 µM
  relative viability: 1.17
ChaGo-K-1; first compound 0.03162 µM
  relative viability: 1.16
ChaGo-K-1; first compound 0.1 µM
  relative viability: 1.23
ChaGo-K-1; first compound 0.3162 µM
  relative viability: 1.08
ChaGo-K-1; first compound 1 µM
  relative viability: 1.08
EPLC-272H; first compound 0.01 µM
  relative viability: 0.909
EPLC-272H; first compound 0.03162 µM
  relative viability: 1.07
EPLC-272H; first compound 0.3162 µM
  relative viability: 0.937
EPLC-272H; first compound 1 µM
  relative viability: 0.896
H3255; first compound 0.01 µM
  relative viability: 0.871
H3255; first compound 0.03162 µM
  relative viability: 1.05
H3255; first compound 0.1 µM
  relative viability: 0.971
H3255; first compound 0.3162 µM
  relative viability: 0.926
H3255; first compound 1 µM
  relative viability: 0.769
HCC-78; first compound 0.01 µM
  relative viability: 0.342
HCC-78; first compound 0.03162 µM
  relative viability: 0.33
HCC-78; first compound 0.1 µM
  relative viability: 0.331
HCC-78; first compound 0.3162 µM
  relative viability: 0.326
HCC-78; first compound 1 µM
  relative viability: 0.353
HCC-827; first compound 0.01 µM
  relative viability: 0.918
HCC-827; first compound 0.03162 µM
  relative viability: 0.939
HCC-827; first compound 0.1 µM
  relative viability: 0.873
HCC-827; first compound 0.3162 µM
  relative viability: 0.965
HCC-827; first compound 1 µM
  relative viability: 0.956
LC-2-ad; first compound 0.01 µM
  relative viability: 0.492
LC-2-ad; first compound 0.03162 µM
  relative viability: 0.427
LC-2-ad; first compound 0.1 µM
  relative viability: 0.487
LC-2-ad; first compound 0.3162 µM
  relative viability: 0.397
LC-2-ad; first compound 1 µM
  relative viability: 0.537
LCLC-97TM1; first compound 0.01 µM
  relative viability: 0.444
LCLC-97TM1; first compound 0.03162 µM
  relative viability: 0.339
LCLC-97TM1; first compound 0.3162 µM
  relative viability: 0.281
LCLC-97TM1; first compound 1 µM
  relative viability: 0.39
NCI-H1666; first compound 0.01 µM
  relative viability: 0.971
NCI-H1666; first compound 0.03162 µM
  relative viability: 1.05
NCI-H1666; first compound 0.1 µM
  relative viability: 0.905
NCI-H1666; first compound 0.3162 µM
  relative viability: 0.941
NCI-H1666; first compound 1 µM
  relative viability: 0.812
NCI-H1915; first compound 0.01 µM
  relative viability: 0.875
NCI-H1915; first compound 0.03162 µM
  relative viability: 0.879
NCI-H1915; first compound 0.1 µM
  relative viability: 0.939
NCI-H1915; first compound 0.3162 µM
  relative viability: 0.876
NCI-H1915; first compound 1 µM
  relative viability: 0.933
NCI-H2087; first compound 0.01 µM
  relative viability: 0.884
NCI-H2087; first compound 0.03162 µM
  relative viability: 1.07
NCI-H2087; first compound 0.1 µM
  relative viability: 0.84
NCI-H2087; first compound 0.3162 µM
  relative viability: 0.682
NCI-H2087; first compound 1 µM
  relative viability: 0.838
NCI-H2126; first compound 0.01 µM
  relative viability: 1.04
NCI-H2126; first compound 0.03162 µM
  relative viability: 1.01
NCI-H2126; first compound 0.1 µM
  relative viability: 1.01
NCI-H2126; first compound 0.3162 µM
  relative viability: 0.944
NCI-H2126; first compound 1 µM
  relative viability: 0.955
NCI-H2347; first compound 0.01 µM
  relative viability: 0.805
NCI-H2347; first compound 0.03162 µM
  relative viability: 0.661
NCI-H2347; first compound 0.1 µM
  relative viability: 0.739
NCI-H2347; first compound 0.3162 µM
  relative viability: 0.584
NCI-H2347; first compound 1 µM
  relative viability: 0.76
NCI-H23; first compound 0.01 µM
  relative viability: 0.59
NCI-H23; first compound 0.03162 µM
  relative viability: 0.586
NCI-H23; first compound 0.3162 µM
  relative viability: 0.508
NCI-H23; first compound 1 µM
  relative viability: 0.506
NCI-H2405; first compound 0.01 µM
  relative viability: 0.814
NCI-H2405; first compound 0.03162 µM
  relative viability: 0.856
NCI-H2405; first compound 0.1 µM
  relative viability: 0.915
NCI-H2405; first compound 0.3162 µM
  relative viability: 0.849
NCI-H2405; first compound 1 µM
  relative viability: 0.84
NCI-H520; first compound 0.01 µM
  relative viability: 0.824
NCI-H520; first compound 0.03162 µM
  relative viability: 0.739
NCI-H520; first compound 0.1 µM
  relative viability: 1.04
NCI-H520; first compound 0.3162 µM
  relative viability: 0.697
NCI-H520; first compound 1 µM
  relative viability: 0.825
NCI-H647; first compound 0.01 µM
  relative viability: 1.12
NCI-H647; first compound 0.03162 µM
  relative viability: 1.23
NCI-H647; first compound 0.1 µM
  relative viability: 1.08
NCI-H647; first compound 0.3162 µM
  relative viability: 0.949
NCI-H647; first compound 1 µM
  relative viability: 0.939
NCI-H650; first compound 0.01 µM
  relative viability: 0.738
NCI-H650; first compound 0.03162 µM
  relative viability: 0.82
NCI-H650; first compound 0.3162 µM
  relative viability: 0.868
NCI-H650; first compound 1 µM
  relative viability: 0.587
NCI-H661; first compound 0.01 µM
  relative viability: 1.06
NCI-H661; first compound 0.03162 µM
  relative viability: 0.983
NCI-H661; first compound 0.1 µM
  relative viability: 0.927
NCI-H661; first compound 0.3162 µM
  relative viability: 0.817
NCI-H661; first compound 1 µM
  relative viability: 0.92
PC-14; first compound 0.01 µM
  relative viability: 0.906
PC-14; first compound 0.03162 µM
  relative viability: 0.82
PC-14; first compound 0.1 µM
  relative viability: 0.85
PC-14; first compound 0.3162 µM
  relative viability: 0.843
PC-14; first compound 1 µM
  relative viability: 0.795
RERF-LC-KJ; first compound 0.01 µM
  relative viability: 0.838
RERF-LC-KJ; first compound 0.03162 µM
  relative viability: 0.798
RERF-LC-KJ; first compound 0.1 µM
  relative viability: 0.871
RERF-LC-KJ; first compound 0.3162 µM
  relative viability: 0.823
RERF-LC-KJ; first compound 1 µM
  relative viability: 0.808
